This is an account of results in patent US20260102387A1, “IMMUNOSUPPRESSIVE COMPOUNDS” (UNIVERSITÄT BASEL, priority 2022, published 2026).

Experiment [1] deals with coronin 1 promoter. The experiment is described as follows: Fluorescence-based screening assay: coronin 1 promoter driven GFP in RBL cells (microplate reader / microscopy). The note with it: RBL; 5 μg/ml, 48 h, microplate reader, DMSO = 100; read-out: GFP values (%). The format is cell-based. On the procedure:
The murine coronin 1 promoter sequences of SEQ ID NO: 1-6 were each cloned into a plasmid lacking a promoter (promoterless) but containing a destabilized Green Fluorescence Protein (GFP) cassette. Rat Basophil Leukemia (RBL) cells were transfected with the plasmids, stable GFP expressing cells were enriched, incubated with various compounds and assessed for coronin 1 promoter inhibition by assessing green fluorescence values (FIG. 2).
The plasmids were independently transfected into immune cells (Rat basophil Leukemia, RBL cells) to generate green and red fluorescent RBL cells that were subsequently enriched by means of flow cytometry. These cells were then mixed in equal ratio (1:1) and incubated in a 96 well plate at 100,000 cells/well in a volume of 200 μl of phenol red free RPMI supplemented with 8% fetal calf serum, L-glutamate and antibiotics (penicillin, […]) from available chemical libraries. At defined time points (8 h, 24 h and 48 h), the GFP and RFP fluorescence was measured using a 96 well microplate reader (Synergy, BioTek Instruments). […] Selected compounds show different levels of modulation of coronin 1 promoter driven GFP and CMV promoter driven RFP fluorescence. GFP and RFP fluorescence were analyzed with a microplate reader upon incubation with the top coronin 1 promoter inhibiting compounds. Shown are percentage of GFP reduction (left column) and percentage of RFP reduction (right column) for the compounds at 5 μg/ml concentration at 48 h. Cycloheximide (CHX) serves as positive control whereas media and DMSO serve as negative controls. […] Cells were imaged using a fluorescence microscope to validate fluorescence inhibition (FIG. 3A) and as well assess morphology and viability (in addition to GFP down regulation confirmation). In addition, quantitative Polymerase Chain Reaction (qPCR) for coronin 1 mRNA transcripts reveal reduction with compound 11 (FIG. 3B). The primers used for the qPCR on RBL cells are listed below as follows;

Experiment [2] has as its system early cytomegalovirus promoter. The experiment is described as follows: Screening assay control: CMV promoter driven RFP in RBL cells (microplate reader). The format is cell-based. The settings on record: 5 μg/ml, 48 h, microplate reader, DMSO = 100, read-out: RFP values (%). On the procedure: As an unrelated promoter, the early cytomegaloviral promoter element was cloned into a promoterless Red Fluorescence Protein (RFP) expression plasmid. Rat Basophil Leukemia (RBL) cells were transfected with the plasmid, stable RFP expressing cells enriched, incubated with various compounds and were assessed for red fluorescence values. Analyzing the inhibition of an unrelated promoter (in this case, early cytomegalovirus promoter) that drove Red Fluorescence Protein (RFP) expression assessed non-specificity of the compound under analysis.
The plasmids were independently transfected into immune cells (Rat basophil Leukemia, RBL cells) to generate green and red fluorescent RBL cells that were subsequently enriched by means of flow cytometry. These cells were then mixed in equal ratio (1:1) and incubated in a 96 well plate at 100,000 cells/well in a volume of 200 μl of phenol red free RPMI supplemented with 8% fetal calf serum, L-glutamate and antibiotics (penicillin, streptomycin) and various compounds (3 and 5 μg/ml concentrations) from available chemical libraries. At defined time points (8 h, 24 h and 48 h), the GFP and RFP fluorescence was measured using a 96 well microplate reader (Synergy, BioTek Instruments). […] Selected compounds show different levels of modulation of coronin 1 promoter driven GFP and CMV promoter driven RFP fluorescence. GFP and RFP fluorescence were analyzed with a microplate reader upon incubation with the top coronin 1 promoter inhibiting compounds. Shown are percentage of GFP reduction (left column) and percentage of RFP reduction (right column) for the compounds at 5 μg/ml concentration at 48 h. Cycloheximide (CHX) serves as positive control whereas media and DMSO serve as negative controls. […] Cells were imaged using a fluorescence microscope to validate fluorescence inhibition (FIG. 3A) and as well assess morphology and viability (in addition to GFP down regulation confirmation). In addition, quantitative Polymerase Chain Reaction (qPCR) for coronin 1 mRNA transcripts reveal reduction with compound 11 (FIG. 3B). The primers used for the qPCR on RBL cells are listed below as follows;

For another experiment, the system named is RBL cells. The experiment is described as follows: Cell viability by live-dead staining (cytotoxicity), flow cytometry. The format is cell-based, Rat. The settings on record: Rattus norvegicus, RBL, cell viability via live/dead staining, 48-65 h, read-out: EC50 Toxicity. The method, then:
(§1) RBL cells expressing GFP under coronin 1 promoter and optionally with RBL cells expressing RFP under CMV promoter were mixed in equal numbers and incubated with the compounds at indicated concentrations for 48-65 h and analyzed by flow cytometry for alteration in coronin 1 promoter (GFP fluorescence), CMV promoter (RFP fluorescence) values. In addition, the cells were labelled with live-dead marker for assessing cell viability status by flow cytometry. Cycloheximide (CHX) serves as positive control and DMSO serves as negative controls. Effective Concentration (EC50) values for coronin 1 promoter inhibition via GFP fluorescence analysis, non-specific promoter inhibition via CMV promoter driven-RFP fluorescence analysis and cell viability via live/dead staining as a measure for toxicity in flow cytometry for compounds (10-22 and 50a-65a) are shown in Table 6 and Table 7. Based on the EC50 analysis of the inhibition of coronin 1 promoter driven GFP fluorescence the (4S,7R)-configurated eutomers were identified (Structures FIG. 9A-C). This is exemplified for compounds containing two stereocenters by eutomers 11c and 13a. […] Subsequent EC50 evaluations (Table 7) were performed with compound 13a as standard for relative potency normalized to a value of 1.00 (relative potency calculated as [EC50 GFP inhibition 13a]/[EC50 GFP inhibition compound of interest]).
(A flow cytometer gives signals particle by particle.)

Another experiment deals with CMV promoter. As to the kind of experiment: EC50 analysis for CMV promoter driven RFP inhibition (non-specific activity) by flow cytometry in RBL cells. The class given is cell-based, cytomegalovirus. The note with it: 48-65 h, read-out: EC50 RFP alteration. On the procedure: as §1
In experiment [3] the test system is coronin 1 promoter. The experiment is described as follows: EC50 analysis for coronin 1 promoter driven GFP inhibition by flow cytometry in RBL cells. The note with it: RBL, RBL cells, 48-65 h, flow cytometry. The class given is cell-based. The method, then:
RBL cells that had been incubated with the indicated calcium channel blockers (amlodipine (3.125 μM) and verapamil (8 μM) concentrations for 48 h were analyzed by flow cytometry for any alteration in coronin 1 promoter driven GFP fluorescence. The results reveal no effect of calcium channel blockers on coronin 1 promoter activity (FIG. 4).
as §1

The subject of experiment [4] is BRD2, BRD3 and BRD4 proteins. The settings on record: reported TPP data; cited from earlier work.

Turning to `COc1ccccc1C1CC(=O)C2=C(C1)NC(C)=C(C(=O)OCC1CCCO1)C2c1cccs1` (centres unmarked) [Comp. 1, tetrahydro-2-furanylmethyl-7-(2-methoxyphenyl)-2-methyl-5-oxo-4-(2-thienyl)-1,4,5,6,7,8-hexahydro-3-quinolinecarboxylate], the activity at 5 µg/mL with coronin 1 promoter [1] amounted to 35%; in experiment [2], 66%.
The like results for `COC(=O)C1=C(C)NC2=C(C(=O)CC(c3ccccc3OC)C2)C1c1ccc(F)cc1` (centres unmarked) [Comp. 2, methyl-4-(4-fluorophenyl)-7-(2-methoxyphenyl)-2-methyl-5-oxo-1,4,5,6,7,8-hexahydro-3-quinolinecarboxylate] were, in that order, 52% and 81%.
Turning to `CCSCCOC(=O)C1=C(C)NC2=C(C(=O)CC(c3ccccc3OC)C2)C1c1ccsc1` (centres unmarked) [Comp. 3, 2-(ethylthio)ethyl-7-(2-methoxyphenyl)-2-methyl-5-oxo-4-(3-thienyl)-1,4,5,6,7,8-hexahydro-3-quinolinecarboxylate], the activity at 5 µg/mL turned out to be 63% in the experiment on coronin 1 promoter [1] and 80% in experiment [2].
For the molecule `COC(=O)C1=C(C)NC2=C(C(=O)CC(c3ccccc3)C2)C1c1cccc(O)c1` (centres unmarked) [Comp. 4, methyl 4-(3-hydroxyphenyl)-2-methyl-5-oxo-7-phenyl-1,4,5,6,7,8-hexahydroquinoline-3-carboxylate], the activity at 5 µg/mL in the experiment on coronin 1 promoter [1] worked out at 60%; in experiment [2], 85%.
On to `COC(=O)C1=C(C)NC2=C(C(=O)CC(c3cccs3)C2)C1c1cccc(O)c1` (centres unmarked) [Comp. 5, methyl-4-(3-hydroxyphenyl)-2-methyl-5-oxo-7-(2-thienyl)-1,4,5,6,7,8-hexahydro-3-quinolinecarboxylate], for which the activity at 5 µg/mL was found to be 74% with coronin 1 promoter [1] and 108% in experiment [2].
As to `CC1=C(C(=O)OCC2CCCO2)C(c2cccc([N+](=O)[O-])c2)C2=C(CC(c3cccs3)CC2=O)N1` (centres unmarked) [Comp. 6, tetrahydro-2-furanylmethyl-2-methyl-4-(3-nitrophenyl)-5-oxo-7-(2-thienyl)-1,4,5,6,7,8-hexahydro-3-quinolinecarboxylate], the activity at 5 µg/mL in the experiment with coronin 1 promoter [1] was determined as 68%; in experiment [2], 75%.
For the molecule `COC(=O)C1=C(C)NC2=C(C(=O)CC(c3ccc(OC)cc3)C2)C1c1cccc(O)c1` (centres unmarked) [Comp. 8, methyl-4-(3-hydroxyphenyl)-7-(4-methoxyphenyl)-2-methyl-5-oxo-1,4,5,6,7,8-hexahydro-3-quinolinecarboxylate], the results for the activity at 5 µg/mL (in the experiment with coronin 1 promoter [1]; in experiment [2]) were 87% and 97%, respectively.
As to `COC(=O)C1=C(C)NC2=C(C(=O)CC(c3ccccc3OC)C2)C1c1cccs1` (centres unmarked) [Comp. 9, methyl-7-(2-methoxyphenyl)-2-methyl-5-oxo-4-(2-thienyl)-1,4,5,6,7,8-hexahydro-3-quinolinecarboxylate], the values for the activity at 5 µg/mL (in the experiment on coronin 1 promoter [1]; in experiment [2]) were 58% and 97%, respectively.
For the molecule `COc1ccccc1C1CC(=O)C2=C(C1)NC(C)=C(C(=O)OCC1CCCO1)C2c1ccccc1F` (centres unmarked) [Comp. 10, tetrahydro-2-furanylmethyl-4-(2-fluorophenyl)-7-(2-methoxyphenyl)-2-methyl-5-oxo-1,4,5,6,7,8-hexahydro-3-quinolinecarboxylate], the EC50 in the experiment on RBL cells is over 7500 nM; with CMV promoter, 1000 nM; in the experiment with coronin 1 promoter [3], 800 nM. The activity at 5 µg/mL with coronin 1 promoter [1] amounted to 48%; in experiment [2] it was 110%.
For `COc1ccccc1C1CC(=O)C2=C(C1)NC(C)=C(C(=O)OCC1CCCO1)C2c1cccc(O)c1` (centres unmarked) [Comp. 12, tetrahydro-2-furanylmethyl-4-(3-hydroxyphenyl)-7-(2-methoxyphenyl)-2-methyl-5-oxo-1,4,5,6,7,8-hexahydro-3-quinolinecarboxylate], the figures for the EC50 in the experiment with RBL cells, in the experiment with CMV promoter and in the experiment with coronin 1 promoter [3] were over 3000 nM, over 1000 nM and 340 nM, respectively. Besides, the activity at 5 µg/mL in the experiment on coronin 1 promoter [1] amounted to 46%; in experiment [2], 153%.
As to `COC(=O)C1=C(C)NC2=C(C(=O)CC(c3ccc(Cl)cc3)C2)C1c1cccc(O)c1` (centres unmarked) [Comp. 22, methyl 7-(4-chlorophenyl)-4-(3-hydroxyphenyl)-2-methyl-5-oxo-1,4,5,6,7,8-hexahydroquinoline-3-carboxylate], the figures for the activity at 5 µg/mL (with coronin 1 promoter [1]; in experiment [2]) were 55% and 70%, respectively.
For the molecule `COc1cc2c(cc1-c1c(C)noc1C)ncc1[nH]c(=O)n([C@H](C)c3ccccn3)c12` [IBET-151], in experiment [4], the “thermal stabilization of BRD2, BRD3 and BRD4 proteins” value (“thermal stabilization of BRD2” for short) is reported as “thermal stabilization”.
Consider `CC(=O)Nc1c(F)cc(C(=O)N[C@H]2CC[C@H](O)CC2)cc1O[C@@H](C)c1ccccc1` [IBET-BD2], for which the “thermal stabilization of BRD2” value in experiment [4] is “thermal stabilization”.
For the molecule `Cc1sc2c(c1C)C(c1ccc(Cl)cc1)=N[C@@H](CC(=O)OC(C)(C)C)c1nnc(C)n1-2` [JQ1], in experiment [4], the “thermal stabilization of BRD2” value was “thermal stabilization”.
Take `COc1cc(OC)c2c(=O)[nH]c(-c3cc(C)c(OCCO)c(C)c3)nc2c1` [RVX-208]: in experiment [4], the “thermal stabilization of BRD2” value was “thermal stabilization”.
`COc1ccccc1C1CC(=O)C2=C(C1)NC(C)=C(C(=O)OC1CCOCC1)C2c1cccc(O)c1` (centres unmarked) [compound 13, tetrahydro-2H-pyran-4-yl-4-(3-hydroxyphenyl)-7-(2-methoxyphenyl)-2-methyl-5-oxo-1,4,5,6,7,8-hexahydro-3-quinolinecarboxylate]: the EC50 with RBL cells was over 2500 nM; with CMV promoter it was over 2500 nM; in the experiment with coronin 1 promoter [3], 120 nM.
`COc1ccccc1C1CC(=O)C2=C(C1)NC(C)=C(C(=O)OCC1CCOCC1)C2c1cccc(O)c1` (centres unmarked) [compound 18, (tetrahydro-2H-pyran-4-yl)methyl 4-(3-hydroxyphenyl)-7-(2-methoxyphenyl)-2-methyl-5-oxo-1,4,5,6,7,8-hexahydroquinoline-3-carboxylate]: the values for the EC50 with RBL cells, with CMV promoter and with coronin 1 promoter [3] were over 2500 nM, over 2500 nM and 200 nM, respectively.
